Assay results as given in publication PMC7096246 (Journal of pharmaceutical sciences, 2020).
Values after ≈ are worked out from the molar mass of the structure shown.

Experiments:
[1] = Saturation solubility in 50% FBS/PBS; type: physicochemical
[2] = cited from earlier work
[3] = ref DrugBank database, DB01229 and DB08889; cited from earlier work
[4] = Water solubility measured in the current study; type: physicochemical

solubility at 24 h [1] [µg/mL] | solubility at 24 h [4] [µg/mL] | SMILES | plasma protein binding [2] | water solubility as reported in DrugBank [3] [µg/mL]
9.3 ± 0.2 (≈ 12.9 µM) | 1.3 ± 0.2 (≈ 1.81 µM) | CC(C)C[C@H](NC(=O)[C@H](CCc1ccccc1)NC(=O)CN1CCOCC1)C(=O)N[C@@H](Cc1ccccc1)C(=O)N[C@@H](CC(C)C)C(=O)[C@@]1(C)CO1 [CFZ, carfilzomib] | 98% | 4.8 (≈ 6.67 µM)
 |  | CC(=O)O[C@H]1C(=O)[C@@]2(C)[C@H]([C@H](OC(=O)c3ccccc3)[C@]3(O)C[C@H](OC(=O)[C@H](O)[C@@H](NC(=O)c4ccccc4)c4ccccc4)C(C)=C1C3(C)C)[C@]1(OC(C)=O)CO[C@@H]1C[C@@H]2O [PTX, paclitaxel] | 88-98% | 
